Results from article PMC11148078, “Potent activity of polymyxin B is associated with long-lived super-stoichiometric accumulation mediated by weak-affinity binding to lipid A” (Nature Communications, 2024).
Entries after “also recorded” stand apart in the source; their conditions may differ. Bridge positions count the residues as written; N and C are the ends. Square brackets hold non-standard residues; d marks the D form. Peptide text beside a SMILES is read from it. * marks the point of attachment. ξ: configuration not given here. Hexanoyl(4ξ-Me) = CCC(C)CCC(=O)*; dOrn = NCCC[C@@H](N)C(=O)O; Orn = NCCC[C@H](N)C(=O)O

What was measured:
E. coli PmrA^G53E = assay type: cell-based
Protocol: (§1) Bacterial strains and plasmids are listed in SI Table S5. LB growth media was prepared according to manufacturer’s instructions and supplemented with 0.2% arabinose and carbenicillin (50 μg/mL) for the strains containing pBAD24-mcr1 plasmid. Cultures were started by inoculating 3 ml LB with 1–2 colonies from fresh overnight plates and grown at 37 °C until in log phase. Modified minimal inhibitory concentration (MIC) assays were performed in 96-well round bottom polystyrene plates (Corning) with a final volume of 100 µl in LB supplemented with tween-80 at 0.0005%. […] Polymyxin B sulfate (TCI Co. Ltd), polymyxin B nonapeptide (PMBN) (Sigma), and brevicidine (Genentech) were diluted directly in the assay plates. Bacteria were diluted in LB with tween-80 0.0005% and added to a final OD600 of 0.0005. Growth was measured via OD600 on a SpectraMax M5 plate reader after overnight static growth at 37 °C with humidity.

E. coli mcr1 = assay type: cell-based; settings: pBAD-mcr-1
Protocol: as §1

S. aureus WT = assay type: cell-based; settings: LB + 0.0005% tween-80, overnight 37 °C
Protocol: as §1

E. coli WT+rifampicin = experiment: Rifampicin potentiation / outer membrane permeability, wild-type E. coli; assay type: cell-based; settings: rifampicin 1.56 µM; LB + 0.0005% tween-80, overnight 37 °C
Protocol: as §1

[1] = tested on: E. coli PmrA^G53E+rifampicin; experiment: Rifampicin potentiation / outer membrane permeability, E. coli PmrA^G53E; assay type: cell-based
Protocol: as §1

E. coli mcr-1+rifampicin = experiment: Rifampicin potentiation / outer membrane permeability, E. coli mcr-1; assay type: cell-based
Protocol: as §1

wt-OMVs [2] = experiment: Single-cycle kinetic SPR binding to immobilized wt-OMVs; design: species or system E. coli; settings: serial doubling injections, C1 chip
Protocol: (§2) Polymyxin B was covalently attached to a C1 chip (Series S Sensor Chip C1, Cytiva) using an amine coupling kit (Cytiva). Cartoon in Fig. 1A created with BioRender (biorender.com). Briefly, equal amounts of reagents N-hydroxysuccinimide and 1-ethyl-3-(3-dimethylaminopropyl) carbodiimide hydrochloride were mixed as per manufacturer’s instructions and immediately added to the gold chip surface for 2 min, washed with distilled deionized water, and dried. Sufficient polymyxin B (1 mM in 1 M HEPES buffer, pH 8) was added to cover the chip surface, incubated at room temperature for 1 h, washed as before, and then incubated with 1 M ethanolamine hydrochloride-NaOH, pH 8.5, for 1 min. The chip surface was washed with water, dried as previously described, immediately loaded into a Biacore S200, and primed with running buffer (described below) to equilibrate the system. C1 chips were used for multiple runs and discarded upon removal from the Biacore S200.
(§3) SCK C1-chip SPR experiments were performed in running buffer (Dulbecco’s phosphate-buffered salt solution 1x without calcium or magnesium (Fisher Scientific), pH 7.4, with 0.0005% tween-80 (Sigma) passed through a 0.2 µm filter) unless otherwise indicated. Inclusion of tween-80 prevented loss of polymyxin to the plastics[34] (also see Supplementary Information Methods). For experiments with brevicidine, which was suspended in DMSO, 0.125% DMSO was included in the running buffer. OMVs were diluted from frozen stocks to approximately 20–30 µg/ml protein in the OMV buffer. Capture of OMVs was performed at a low flow rate ([…]) for 300 s over the test channel(s) followed by a 300 s stabilization period. All subsequent steps were at a flow rate of […]. For single cycle kinetics, two-fold dilutions were injected over the channel(s) loaded with OMVs and a reference channel without OMVs for 30 s contact and 480 s dissociation. To regenerate chips, 0.5% SDS (desorb 1, Cytiva) was injected into all channels for 60 s at 30 µl/ml twice, with an extra buffer wash and four carry-over control steps to prevent residual SDS from disrupting the following cycle.
All single-cycle kinetic SPR traces shown were double-referenced (unless indicated) within the Biacore S200 Evaluation Software 1.0, exported as a.txt file, and imported (decimated) into GraphPad Prism (version 9.3.1 for Mac, GraphPad Software, San Diego, CA). For clarity, in some cases individual outlier data points (at buffer transitions) were removed when this would not change the overall data or conclusions.

[3] = tested on: resistant-OMVs (E. coli PmrA^G53E); experiment: Single-cycle kinetic SPR binding to immobilized resistant-OMVs; settings: serial doubling injections, C1 chip
Protocol: as §2
as §3, with “To regenerate chips, 0.5% SDS (desorb 1, Cytiva) was injected into all channels for 60 s at 30 µl/ml twice, with an extra buffer wash and four carry-over control steps to prevent residual SDS from disrupting the following cycle.” left out

wt-OMVs [4] = experiment: SPR chaser analysis (residence time), wt-OMVs; assay type: binding, E. coli; settings: 25 °C, n≥3, (SD)
Protocol: (§4) The off-rate of the tightly bound fraction was estimated using a chaser analysis, where OMVs were pre-saturated with polymyxin B and then re-saturated after an extended time interval (Supplementary Information Fig. S11A). […] A t1/2 of >6 h was determined for polymyxin B binding to OMVs at both 25 and 37 °C (SI Table S3). The t1/2 of brevicidine, also measured by chaser analysis, was approximately 1 h on both wt-OMVs and polymyxin-resistant-OMVs (SI Table S3).
(§5) Binding and kinetic analysis of SPR-OMV assays […]
To determine the residence time of the test compound with OMVs, the ‘chaser method’ was used because it accounts for drift that can occur in the system over long incubation times 13. OMVs were loaded onto the chip as described above then 5 µM polymyxin B was injected using the ‘low-sample consumption’ setting for 300 sec ([…] flow rate), followed by a 240 sec dissociation time. A second dose of 5 µM polymyxin B was then injected for 60 sec ([…]) to assure saturation followed by a 2 h dissociation time prior to the ‘chaser’, a 60 sec pulse of 5 µM polymyxin B. The RUs of associated polymyxin B were determined 120 sec after the start of the dissociation. The change in RUs from before dosing to after the second dose, and the change in RUs from prior to the ‘chaser’ dose and 120 sec after the start of its dissociation were used to calculate the fraction occupancy of the material and the residence time/half-life as described 13. […]
PMBN) to LPS for 20 min. […]
20 sec with a Solarus plasma cleaner (Gatan). Grids were blotted and plunge-frozen by Vitrobot (ThermoFisher Scientific, Waltham, MA) at 4°C, 100% relative humidity, blot force 7, and a 3 sec […]
TEM data collection was performed using a Titan Krios G3i (ThermoFisher Scientific, Waltham, MA) operating at 300 kV equipped with a BioQuantum energy filter and a K3 Summit direct electron detector operating at a nominal magnification of 105,000x (0.838 Å/pixel), an energy slit width of 20 eV, defocus range -1 to -3 μm, 3-sec exposure time, 60 frames per movie, a total electron fluence of ~64 e/Å2. Microscope and camera automation was accomplished by SerialEM14, and image processing (motion correction & CTF estimation) was performed using […]
(§6) Standard cryo-EM image processing software and methods were incompatible with the vesicle images, so a blinded visual scoring method for image analysis was used. Approximately 50 images from each sample and treatment condition that each contained at least one OMV (pooled in a single folder and blinded) were scored for number of vesicles touching (0-10+), and if the vesicle membranes appeared disrupted or abnormal. Sampling was not completely random as images of vesicles could not be obtained from areas with significant clumping. Images shown in […]

resistant-OMVs = experiment: SPR chaser analysis (residence time), resistant-OMVs; assay type: binding, E. coli
Protocol: as §4, §5
To determine the residence time of the test compound with OMVs, the ‘chaser method’ was used because it accounts for drift that can occur in the system over long incubation times 13. […] A second dose of 5 µM polymyxin B was then injected for 60 sec ([…]) to assure saturation followed by a 2 h dissociation time prior to the ‘chaser’, a 60 sec pulse of 5 µM polymyxin B. The RUs of associated polymyxin B were determined 120 sec after the start of the dissociation. […]
as §6, with “abnormal.” for “abnormal. Sampling was not completely random as images of vesicles could not be obtained from areas with significant clumping. Images shown in”

| Molecule | antibacterial activity (E. coli PmrA^G53E) | antibacterial activity (E. coli mcr1) | MIC (S. aureus WT) | MIC in presence of rifampicin (E. coli WT+rifampicin) | MIC in presence of rifampicin [1] | MIC in presence of rifampicin (E. coli mcr-1+rifampicin) | SPR binding profile (wt-OMVs [2]) | SPR binding profile [3] | t1/2 (wt-OMVs [4]) | t1/2 (resistant-OMVs; 25 °C, OMVs from PmrA^G53E and pmcr1 strains (n=2 each), (SD)) | t1/2 of bound complex (resistant-OMVs; polymyxin-resistant-OMVs) |
| --- | --- | --- | --- | --- | --- | --- | --- | --- | --- | --- | --- |
| CCC(C)CCC(=O)N[C@H](CC(N)=O)C(=O)N[C@H](Cc1ccc(O)cc1)C(=O)N[C@H](Cc1c[nH]c2ccccc12)C(=O)N[C@H](CCCN)C(=O)N[C@@H](CCCN)C(=O)NCC(=O)N[C@H](CCCN)C(=O)N[C@@H](Cc1c[nH]c2ccccc12)C(=O)N[C@@H]1C(=O)N[C@@H]([C@@H](C)CC)C(=O)NCC(=O)N[C@@H](CO)C(=O)O[C@@H]1C (stereo partly drawn) [Brevicidine] ({Hexanoyl(4ξ-Me)}-[dN][dY][dW][dOrn][Orn]G[dOrn]WTIGS; ester 9-C; N-terminus assumed) | exhibits antibacterial activity against strains with polymyxin-resistant lipid A modifications | exhibits antibacterial activity against strains with polymyxin-resistant lipid A modifications | > 40 µM | 0.078 µM | 0.078 µM | 0.078 µM | accumulation of a tightly bound species and a superimposed saw-tooth profile | indistinguishable from its binding to wt-OMVs; also recorded: identical response to wt-OMVs and resistant-OMVs | 1.09 (0.20) h | 1.17 (0.57) h | approximately 1 h |
| Colistin | – | – | – | – | – | – | dominated by the accumulation of tightly bound polymyxin B and a superimposed saw-tooth profile associated with transient binding | – | – | – | – |
